Data published in patent US5462861A, “Method for improving enzyme activities with noble gases” (American Air Liquide, Chicago Research Center, priority 1993, dated 1995).
Entries after “also recorded” stand apart in the source; their conditions may differ.

What was measured:
α-D-glucosidase = α-D-glucosidase activity under gas; format: biochemical; conditions: FIG. 31
Description: Solution preparation: Optimized w/v solutions are prepared by diluting the enzyme (units/ml) and the substrate (μg/ml) in appropriate buffer (optimized pH and molarity for enzymes). The solutions are used for gas experiments at once to avoid loss of activity. Various enzyme and substrate concentrations and inhibitors may be employed. Physical parameters are varied as required. […] Gas-tight serum vials are filled with enzyme and solvent. Sufficient gas is consecutively bubbled in the cuvets and serum vials, with a 1-hr wait between injections to maximize equilibration of gas. All syringes and dead spaces are purged before filling with the appropriate gas. The amount of gas used has been measured sufficient to saturate the solution required. Spectrophotometric time-drive, reaction rate, and kinetic analyses: cuvets and serum vials are saturated with gas 40 minutes before the run. A gas-filled syringe is used to retrieve 0.5 ml of enzyme solution to avoid air contact. […] Changes in the rate or final equilibrium of the reaction versus ambient air are recorded. Comparison is also made with added oxygen, and with deoxygenation. Some samples are also prepared under pressure.

Phosphoglucose isomerase = Phosphoglucose isomerase (Homo sapiens, UniProt P06744); assay: Phosphoglucose isomerase activity under gas; format: biochemical; conditions: 25° C., FIG. 35
Description: (§1) Solution preparation: Optimized w/v solutions are prepared by diluting the enzyme (units/ml) and the substrate (μg/ml) in appropriate buffer (optimized pH and molarity for enzymes). The solutions are used for gas experiments at once to avoid loss of activity. Various enzyme and substrate concentrations and inhibitors may be employed. Physical parameters are varied as required.
(§2) Preparation of samples: Cuvets are filled with 2 ml of substrate solution by means of a gas-tight syringe. Gas-tight serum vials are filled with enzyme and solvent. Sufficient gas is consecutively bubbled in the cuvets and serum vials, with a 1-hr wait between injections to maximize equilibration of gas. All syringes and dead spaces are purged before filling with the appropriate gas. The amount of gas used has been measured sufficient to saturate the solution required.
(§3) Spectrophotometric time-drive, reaction rate, and kinetic analyses: cuvets and serum vials are saturated with gas 40 minutes before the run. A gas-filled syringe is used to retrieve 0.5 ml of enzyme solution to avoid air contact. The 0.5 ml syringe injections of enzyme are made simultaneously to effect a common starting time to for the samples. 7 gases (air, O2, N2, Ne, Ar, Kr, Xe) are run at various temperatures each (from 0° to 60° ). Changes in the rate or final equilibrium of the reaction versus ambient air are recorded. Comparison is also made with added oxygen, and with deoxygenation. Some samples are also prepared under pressure.
(§4) In a complete experiment, an enzyme at optimal pH and buffering salt concentration is reacted with 5 substrate concentrations in solution with noble gas at 1 atm. […] Controls are also run after evacuation of solution by vacuum. The reaction is monitored colorimetrically in a scanning spectrophotometer in real time, and the signals are treated mathematically to obtain rate and yield differences. Sample numbers are constant and sufficient to ensure significance of results. All parameters are independently controlled and measured, and more complex experiments are occasionally carried out.

Tyrosinase [1] = assay: Tyrosinase-L-tyrosine reaction, solution saturated with gas; format: biochemical, Mushroom
Description: as §1, §2, §3
1. Solution preparation: 10% w/v solutions are prepared by diluting the enzyme (units/ml) and the substrate (μg/ml) in Sodium Phosphate buffer (pH 6.85, optimized pH for enzymes). The solutions are stored in refrigerator (0°-5° C.) and used for gas experiments within 2 or 3 days to avoid loss of activity.
6. Preparation of run samples: Acrylic cuvets are filled with 2 ml of substrate solution by means of a gas tight syringe. Gastight serum vials are filled with enzyme. 3×10 cc of gas are consecutively bubbled in the cuvets and serum vials, with a […] between injections. This represents a 10× displacement of dead volume while maximizing equilibration of gas. All syringes and dead spaces are purged before filling with the appropriate gas. After the third 10 cc injection, the cuvets and serum vials are left overnight under two 10 cc syringes filled with the appropriate gas in refrigerator at 0°-5° C.
8. Spectrophotometric runs: The cuvets and serum vials are filled with 10 cc of gas 40 min before the run. A gas-filled syringe is used to retrieve 0.5 ml of enzyme solution to avoid air contact. The 0.5 ml syringe injections of enzyme are made simultaneously to effect a common starting time t0 for the samples. Seven gases (air, O2, N2, Ne, Ar, Kr, Xe) are run at five temperatures each (15° C., 20° C., 25° C., 30° C., 35° C.). Changes in the rate or final equilibrium of the reaction versus ambient air are recorded.
The optimal conditions are [E]/[S] (100 μg/ml)/(100 μg/ml), the changes in absorbance being observed at 305 nm.
3×10 cc of gas are bubbled in the silicone-sealed cuvets and serum vials (T-3754, T-7755), with an interval of 20 min (at 0°-5°C.) between each gas injection.
a. The silicone-sealed cuvets are removed from the refrigerator 40 min before the experimental run, filled with 10 cc of gas and left at room temperature (26° C.) under two 10 cc syringes.
The 0.5 ml syringe injections of enzyme are made simultaneously to effect a common starting time t0 for the samples.
200 points, 18 s intervals 1 hr run

[2] = tested on: phenylalanine ammonia lyase; assay: Phenylalanine ammonia lyase activity under gas; format: biochemical; conditions: FIG. 32
Description: as §1, §2, §3, §4

tyrosinase [3] = assay: Oxygen addition experiment, tyrosinase; format: biochemical
Description: as §4

glucosidase = tested on: glucosidase
Description: as §4

particulate sialidase = conditions: Sandhoff et al, FEBS Letters 1976; cited from earlier work
[4] = Schreiner; independent of oxygen partial pressure; cited from earlier work

FS(F)(F)(F)(F)F [SF6, sulfur hexafluoride, reference compound]
effect on α-D-glucosidase (α-D-glucosidase): enhancement

O=O [oxygen, reference compound]
effect on phosphoglucose isomerase (Phosphoglucose isomerase): inhibition
effect on tyrosinase-L-tyrosine reaction (Tyrosinase [1]; 15° C.): approximately the same effect
effect on tyrosinase-L-tyrosine reaction (Tyrosinase [1]; 20° C.): only a moderate inhibitory effect; also recorded: little effect; also recorded: no enhancing effect; also recorded: does not enhance
effect on tyrosinase-L-tyrosine reaction (Tyrosinase [1]; 30° C.): inhibitory effect; also recorded: no longer enhances; also recorded: no enhancing effect
temperature dependence of the effect on tyrosinase (Tyrosinase [1]; various temperatures (15-35° C.)): curves obtained with oxygen instead of air are identical; also recorded: saturates at 30 °C
effect on phenylalanine ammonia-lyase [2]: enhancement
effect of oxygen on tyrosinase activity (tyrosinase [3]; addition of a small amount oxygen): enhanced tyrosinase activity slightly
maximum increase in activity of tyrosinase (tyrosinase [3]; addition of oxygen to air): 6%
effect on α-D-glucosidase (α-D-glucosidase): enhancement
effect of adding oxygen to glucosidase reactions (glucosidase): no observed effect

FC(F)(F)C(Cl)Br (centres unmarked) [halothane]
effect on activity of particulate sialidase (particulate sialidase): enhance the activity

[N-]=[N+]=O [nitrous oxide]
inhibition per atmosphere of added gas [4]: 1.9 % inhibition per atmosphere
effect on activity of particulate sialidase (particulate sialidase): enhance the activity
